Measurements: ChEMBL document CHEMBL4014286, “Discovery of orally active hepatoselective glucokinase activators for treatment of Type II Diabetes Mellitus” (Bioorg Med Chem Lett, 2017)
Blank lines part the entries; values can stand above or below the compound they belong to. Activity calls are given as the source filed them. No cut-off for these calls is given here.

Key:
Hexokinase-4 = target: T1, Hexokinase-4 (Homo sapiens, UniProt P35557); experiment: Activation of recombinant human glucokinase assessed as conversion of D-glucose to D-glucose-6-phosphate in presence of 10 mM glucose by G6PDH coupled spectrophotometric assay
T1 sequence (P35557 whole entry): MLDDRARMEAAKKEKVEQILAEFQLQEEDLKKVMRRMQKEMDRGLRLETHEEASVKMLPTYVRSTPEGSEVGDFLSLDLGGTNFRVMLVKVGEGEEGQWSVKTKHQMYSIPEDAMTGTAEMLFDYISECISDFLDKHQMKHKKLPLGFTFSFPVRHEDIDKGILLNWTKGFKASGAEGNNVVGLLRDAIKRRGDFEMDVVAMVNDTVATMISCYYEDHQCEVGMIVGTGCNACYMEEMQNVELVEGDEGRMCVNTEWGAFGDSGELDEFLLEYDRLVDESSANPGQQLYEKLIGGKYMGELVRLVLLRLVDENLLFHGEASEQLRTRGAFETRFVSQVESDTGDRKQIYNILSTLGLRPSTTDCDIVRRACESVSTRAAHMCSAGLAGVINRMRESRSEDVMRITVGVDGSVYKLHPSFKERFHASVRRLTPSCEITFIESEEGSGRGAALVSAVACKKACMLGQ

[1] = Apparent permeability of the compound; assay type: physicochemical; settings: not told
[2] = Mean residence time in rat; assay type: ADME; settings: in vivo
[3] = Oral bioavailability in rat; assay type: ADME, organism-based; settings: in vivo
[4] = Clearance in rat; assay type: ADME; settings: in vivo
[5] = Half life in rat; assay type: ADME; settings: in vivo
[6] = Fraction unbound in C57BL/6 mouse plasma; assay type: ADME, cell-free
[7] = Total drug level in HFD-fed C57BL/6 mouse pancreas at 30 mg/kg, ip measured 4 hrs post dose; assay type: ADME, organism-based; settings: read-out: Drug uptake
[8] = Total drug level in HFD-fed C57BL/6 mouse liver at 30 mg/kg, ip measured 4 hrs post dose; assay type: ADME, organism-based; settings: read-out: Drug uptake
Mus musculus [9] = experiment: Antidiabetic activity in HFD-fed C57BL/6 mouse assessed as decrease in plasma insulin level at 30 mg/kg, ip; assay type: functional, organism-based
[10] = Total drug level in HFD-fed C57BL/6 mouse plasma at 30 mg/kg, ip measured 4 hrs post dose; assay type: ADME, organism-based
[11] = Ratio of drug level in HFD-fed C57BL/6 mouse liver to plasma at 30 mg/kg, ip measured 4 hrs post dose; assay type: ADME, organism-based
[12] = Ratio of drug level in HFD-fed C57BL/6 mouse pancreas to plasma at 30 mg/kg, ip measured 4 hrs post dose; assay type: ADME, organism-based
Mus musculus [13] = experiment: Toxicity in HFD-fed C57BL/6 mouse assessed as increase in plasma insulin level at 10 mg/kg, ip; assay type: organism-based; settings: in vivo
Mus musculus [14] = experiment: Antidiabetic activity in HFD-fed C57BL/6 mouse assessed as decrease in blood glucose level at 10 to 30 mg/kg, ip; assay type: functional, organism-based
[15] = Oral bioavailability in mouse; assay type: ADME, organism-based; settings: in vivo
[16] = Ratio of drug level in HFD-fed C57BL/6 mouse liver to pancreas at 30 mg/kg, ip measured 4 hrs post dose; assay type: ADME, organism-based; settings: in vivo
[17] = Total drug level in HFD-fed C57BL/6 mouse liver at 30 mg/kg, po measured 4 hrs post dose; assay type: ADME, organism-based; settings: read-out: Drug uptake
[18] = Total drug level in HFD-fed C57BL/6 mouse plasma at 30 mg/kg, po measured 4 hrs post dose; assay type: ADME, organism-based
[19] = Ratio of drug level in HFD-fed C57BL/6 mouse liver to pancreas at 3 mg/kg, po measured 4 hrs post dose; assay type: ADME, organism-based; settings: in vivo
[20] = Total drug level in HFD-fed C57BL/6 mouse plasma at 10 mg/kg, po measured 4 hrs post dose; assay type: ADME, organism-based
[21] = Total drug level in HFD-fed C57BL/6 mouse plasma at 3 mg/kg, po measured 4 hrs post dose; assay type: ADME, organism-based
[22] = Ratio of drug level in HFD-fed C57BL/6 mouse pancreas to plasma at 10 mg/kg, po measured 4 hrs post dose; assay type: ADME, organism-based
[23] = Total drug level in HFD-fed C57BL/6 mouse pancreas at 3 mg/kg, po measured 4 hrs post dose; assay type: ADME, organism-based; settings: read-out: Drug uptake
[24] = Total drug level in HFD-fed C57BL/6 mouse liver at 10 mg/kg, po measured 4 hrs post dose; assay type: ADME, organism-based; settings: read-out: Drug uptake
[25] = Total drug level in HFD-fed C57BL/6 mouse pancreas at 30 mg/kg, po measured 4 hrs post dose; assay type: ADME, organism-based; settings: read-out: Drug uptake
[26] = Ratio of drug level in HFD-fed C57BL/6 mouse liver to plasma at 10 mg/kg, po measured 4 hrs post dose; assay type: ADME, organism-based
[27] = Ratio of drug level in HFD-fed C57BL/6 mouse pancreas to plasma at 3 mg/kg, po measured 4 hrs post dose; assay type: ADME, organism-based
[28] = Total drug level in HFD-fed C57BL/6 mouse pancreas at 10 mg/kg, po measured 4 hrs post dose; assay type: ADME, organism-based; settings: read-out: Drug uptake
[29] = Ratio of drug level in HFD-fed C57BL/6 mouse liver to plasma at 3 mg/kg, po measured 4 hrs post dose; assay type: ADME, organism-based
[30] = Ratio of drug level in HFD-fed C57BL/6 mouse liver to pancreas at 10 mg/kg, po measured 4 hrs post dose; assay type: ADME, organism-based; settings: in vivo
Mus musculus [31] = experiment: Toxicity in HFD-fed C57BL/6 mouse assessed as increase in plasma insulin level at 30 mg/kg, po; assay type: organism-based; settings: in vivo
[32] = Ratio of drug level in HFD-fed C57BL/6 mouse liver to pancreas at 30 mg/kg, po measured 4 hrs post dose; assay type: ADME, organism-based; settings: in vivo
[33] = Total drug level in HFD-fed C57BL/6 mouse liver at 3 mg/kg, po measured 4 hrs post dose; assay type: ADME, organism-based; settings: read-out: Drug uptake
[34] = Ratio of drug level in HFD-fed C57BL/6 mouse liver to plasma at 30 mg/kg, po measured 4 hrs post dose; assay type: ADME, organism-based
Mus musculus [35] = experiment: Antidiabetic activity in HFD-fed C57BL/6 mouse assessed as decrease in blood glucose level at 30 mg/kg, po; assay type: functional, organism-based
Mus musculus [36] = experiment: Toxicity in HFD-fed C57BL/6 mouse assessed as increase in plasma insulin level at 10 mg/kg, po; assay type: organism-based; settings: in vivo
[37] = Ratio of drug level in HFD-fed C57BL/6 mouse pancreas to plasma at 30 mg/kg, po measured 4 hrs post dose; assay type: ADME, organism-based
Mus musculus [38] = experiment: Antidiabetic activity in HFD-fed C57BL/6 mouse assessed as decrease in blood glucose level at 10 mg/kg, po; assay type: functional, organism-based

EC50 (Hexokinase-4): 0.0685 µM
Structure (SMILES): COc1ccc(Sc2ccc(Sc3ccccn3)nc2C(=O)Nc2ncc(CCC(=O)O)s2)cc1

Papp [1]: 26 ×10⁻⁶ cm/s
MRT [2]: 0.76 h
bioavailability [3]: 57%
clearance [4]: 28 mL/min/kg
EC50 (Hexokinase-4): 0.014 µM
half-life [5]: 2.1 h
fraction unbound [6]: 0.003
Structure (SMILES): COc1ccc(Sc2ccc(Sc3ccccn3)nc2C(=O)Nc2ncc(SCC(=O)O)s2)cc1

EC50 (Hexokinase-4): 0.049 µM
Structure (SMILES): COc1ccc(Sc2ccc(Sc3ccccn3)nc2C(=O)Nc2nc(CC(=O)O)cs2)cc1

concentration at 4 h [17]: 127 µM
concentration at 4 h [18]: 19.6 µM
Ratio [19]: 159
concentration at 4 h [20]: 4.5 µM
concentration at 4 h [21]: 0.62 µM
Kp at 4 h [22]: 0.1
concentration at 4 h [23]: 0.074 µM
Papp [1]: 25 ×10⁻⁶ cm/s
concentration at 4 h [24]: 51.5 µM
concentration at 4 h [25]: 2.1 µM
MRT [2]: 1.4 h
Kp at 4 h [26]: 12.4
bioavailability [3]: 25%
Kp at 4 h [27]: 0.13
concentration at 4 h [28]: 0.47 µM
clearance [4]: 50 mL/min/kg
Kp at 4 h [29]: 17.7
Ratio [30]: 127 to 128
EC50 (Hexokinase-4): 0.0096 µM
half-life [5]: 3.9 h
Ratio [32]: 70
concentration at 4 h [33]: 10.4 µM
Kp at 4 h [34]: 6.7
fraction unbound [6]: 0.049
Kp at 4 h [37]: 0.11
Structure (SMILES): O=C(O)Cc1nc(NC(=O)c2nc(Sc3ccccn3)ccc2Sc2ccc(F)cc2)sc1Cl
Activity (Mus musculus [31]): Toxic
Activity (Mus musculus [35]): Active
Activity (Mus musculus [36]): Non-Toxic
Activity (Mus musculus [38]): Active

Further lines, the compound ahead of its results:

Structure (SMILES): COc1ccc(Sc2ccc(Sc3nncn3C)nc2C(=O)Nc2ncc(SCC(=O)O)s2)cc1
concentration at 4 h [7]: 4 µM
concentration at 4 h [8]: 452 µM
Papp [1]: 2 ×10⁻⁶ cm/s
MRT [2]: 0.64 h
Activity (Mus musculus [9]): Active
bioavailability [3]: 1 to 1.2%
clearance [4]: 115 mL/min/kg
EC50 (Hexokinase-4): 0.0515 µM
half-life [5]: 2 h
concentration at 4 h [10]: 31 µM
Kp at 4 h [11]: 14.9
Kp at 4 h [12]: 0.16
Activity (Mus musculus [13]): Non-Toxic
Activity (Mus musculus [14]): Active
bioavailability [15]: 3%
Ratio [16]: 113

Structure (SMILES): COc1ccc(Sc2ccc(Sc3ccccn3)nc2C(=O)Nc2nc(CC(=O)O)c(Cl)s2)cc1
Papp [1]: 22 ×10⁻⁶ cm/s
EC50 (Hexokinase-4): 0.0057 µM

Structure (SMILES): Cc1ccc(Sc2ccc(Sc3nnc[nH]3)nc2C(=O)Nc2ncns2)cn1
concentration at 4 h [20]: 18.5 µM
Kp at 4 h [22]: 0.5
Papp [1]: 21 ×10⁻⁶ cm/s
concentration at 4 h [24]: 77.7 µM
Kp at 4 h [26]: 4.5
bioavailability [3]: 100%
concentration at 4 h [28]: 8.7 µM
clearance [4]: 1.9 mL/min/kg
Ratio [30]: 8.9
EC50 (Hexokinase-4): 0.0277 µM
half-life [5]: 2.7 h
Activity (Mus musculus [36]): Toxic
Activity (Mus musculus [38]): Active
